Values of other authors, collected in PMC7643960 (PLoS ONE, 2020).
Entries after “also recorded” stand apart in the source; their conditions may differ.

Assays:
[1] = system: human carbonic anhydrase isoenzyme IX; set-up: method as in PMID 15664816; settings: cited from earlier work
horses affected by EMM = system: horses affected by EMM; set-up: method as in PMID 26772157; settings: two EMM patients, once a week for 19 consecutive weeks; cited from earlier work

Compound	inhibition of carbonic anhydrase IX [1]	safety of intralesional injection (horses affected by EMM)
C=C(C)[C@@H]1CC[C@]2(COS(N)(=O)=O)CC[C@]3(C)[C@H](CC[C@@H]4[C@@]5(C)CC[C@H](OS(N)(=O)=O)C(C)(C)[C@@H]5CC[C@]43C)[C@@H]12 [BBS, (3β)-Lup-20(29)-ene-3,28-diol, 3,28-disulfamate]	efficient inhibitor	–
C=C(C)[C@@H]1CC[C@]2(C(=O)OCC(N)(CO)CO)CC[C@]3(C)[C@H](CC[C@@H]4[C@@]5(C)CC[C@H](OC(C)=O)C(C)(C)[C@@H]5CC[C@]43C)[C@@H]12 [NVX-207, 3-acetyl-betulinic acid-2-amino-3-hydroxy-2-hydroxymethyl-propanoate]	–	proved to be safe; also recorded: well tolerated
